The values that follow are results of earlier work, collected in patent US8293900B2, “Acylated spiropiperidine derivatives as melanocortin-4 receptor modulators” (Merck Sharp & Dohme Corp, priority 2005, dated 2012).

The conditions of series [1]: injected intramuscularly or subcutaneously, males with psychogenic erectile dysfunction.
The conditions of series [2]: oral route.

Consider “Ac-Nle-c[Asp-His-DPhe-Arg-Trp-Lys]-NH2 [MT-II]”, for which, in series [1], the response rate was 75%. In series [2], the “absorption into the systemic circulation” value is “not absorbed into the systemic circulation”.
